Reference: the NIST ThermoML archive (doi:10.1016/j.jct.2018.05.029)

Experiment: molar heat capacity at saturation pressure

Cc1cc2ccccc2[nH]1 [2-methylindole]
molar heat capacity [J/K/mol]
Conditions | Crystal | Liquid
10 K, Vacuum adiabatic calorimetry | 2.311 | –
11.27 K, Vacuum adiabatic calorimetry | 3.226 | –
12.41 K, Vacuum adiabatic calorimetry | 4.157 | –
13.64 K, Vacuum adiabatic calorimetry | 5.288 | –
15.08 K, Vacuum adiabatic calorimetry | 6.718 | –
16.68 K, Vacuum adiabatic calorimetry | 8.364 | –
18.46 K, Vacuum adiabatic calorimetry | 10.26 | –
20 K, Vacuum adiabatic calorimetry | 11.87 | –
20.49 K, Vacuum adiabatic calorimetry | 12.38 | –
22.77 K, Vacuum adiabatic calorimetry | 14.82 | –
25.3 K, Vacuum adiabatic calorimetry | 17.44 | –
27.77 K, Vacuum adiabatic calorimetry | 19.95 | –
30 K, Vacuum adiabatic calorimetry | 22.09 | –
30.59 K, Vacuum adiabatic calorimetry | 22.64 | –
34.09 K, Vacuum adiabatic calorimetry | 25.92 | –
37.85 K, Vacuum adiabatic calorimetry | 29.24 | –
40 K, Vacuum adiabatic calorimetry | 31.03 | –
41.97 K, Vacuum adiabatic calorimetry | 32.62 | –
46.6 K, Vacuum adiabatic calorimetry | 36.27 | –
50 K, Vacuum adiabatic calorimetry | 38.75 | –
51.65 K, Vacuum adiabatic calorimetry | 39.93 | –
53.69 K, Vacuum adiabatic calorimetry | 41.38 | –
57.12 K, Vacuum adiabatic calorimetry | 43.67 | –
59.07 K, Vacuum adiabatic calorimetry | 45 | –
60 K, Vacuum adiabatic calorimetry | 45.61 | –
64.85 K, Vacuum adiabatic calorimetry | 48.69 | –
70 K, Vacuum adiabatic calorimetry | 51.82 | –
71.32 K, Vacuum adiabatic calorimetry | 52.61 | –
78.49 K, Vacuum adiabatic calorimetry | 56.75 | –
80 K, Vacuum adiabatic calorimetry | 57.59 | –
86.43 K, Vacuum adiabatic calorimetry | 61.12 | –
90 K, Vacuum adiabatic calorimetry | 63.03 | –
95.28 K, Vacuum adiabatic calorimetry | 65.82 | –
100 K, Vacuum adiabatic calorimetry | 68.27 | –
104.89 K, Vacuum adiabatic calorimetry | 70.77 | –
114.73 K, Vacuum adiabatic calorimetry | 75.78 | –
120 K, Vacuum adiabatic calorimetry | 78.44 | –
124.69 K, Vacuum adiabatic calorimetry | 80.8 | –
134.71 K, Vacuum adiabatic calorimetry | 85.9 | –
140 K, Vacuum adiabatic calorimetry | 88.58 | –
144.77 K, Vacuum adiabatic calorimetry | 91.01 | –
154.9 K, Vacuum adiabatic calorimetry | 96.19 | –
160 K, Vacuum adiabatic calorimetry | 98.83 | –
165.05 K, Vacuum adiabatic calorimetry | 101.46 | –
175.19 K, Vacuum adiabatic calorimetry | 106.71 | –
180 K, Vacuum adiabatic calorimetry | 109.23 | –
185.36 K, Vacuum adiabatic calorimetry | 112.05 | –
195.56 K, Vacuum adiabatic calorimetry | 117.49 | –
200 K, Vacuum adiabatic calorimetry | 119.87 | –
205.76 K, Vacuum adiabatic calorimetry | 122.96 | –
215.96 K, Vacuum adiabatic calorimetry | 128.49 | –
220 K, Vacuum adiabatic calorimetry | 130.72 | –
226.14 K, Vacuum adiabatic calorimetry | 134.11 | –
236.28 K, Vacuum adiabatic calorimetry | 139.71 | –
240 K, Vacuum adiabatic calorimetry | 141.78 | –
246.38 K, Vacuum adiabatic calorimetry | 145.35 | –
256.59 K, Vacuum adiabatic calorimetry | 151.16 | –
260 K, Vacuum adiabatic calorimetry | 153.09 | –
266.92 K, Vacuum adiabatic calorimetry | 157.02 | –
276.47 K, Vacuum adiabatic calorimetry | 162.53 | –
277.41 K, Vacuum adiabatic calorimetry | 163.05 | –
280 K, Vacuum adiabatic calorimetry | 164.7 | –
287.09 K, Vacuum adiabatic calorimetry | 169.07 | –
288.08 K, Vacuum adiabatic calorimetry | 169.56 | –
297.66 K, Vacuum adiabatic calorimetry | 175.26 | –
298.15 K, Vacuum adiabatic calorimetry | 175.55 | 224.57
298.88 K, Vacuum adiabatic calorimetry | 176.09 | –
300 K, Vacuum adiabatic calorimetry | 176.66 | 225.41
302.77 K, Vacuum adiabatic calorimetry | 178.44 | –
304.06 K, Vacuum adiabatic calorimetry | 179.13 | –
308.05 K, Vacuum adiabatic calorimetry | 181.6 | –
309.63 K, Vacuum adiabatic calorimetry | 182.65 | –
311.79 K, Vacuum adiabatic calorimetry | 184.11 | –
312.14 K, Vacuum adiabatic calorimetry | 184.35 | –
320 K, Vacuum adiabatic calorimetry | 189.37 | 234.36
320.34 K, Vacuum adiabatic calorimetry | 189.58 | –
331.97 K, Vacuum adiabatic calorimetry | 197.27 | 239.7
337.63 K, Vacuum adiabatic calorimetry | – | 242.18
338.88 K, Vacuum adiabatic calorimetry | – | 242.77
340 K, Vacuum adiabatic calorimetry | – | 243.31
341.57 K, Vacuum adiabatic calorimetry | – | 244.01
349.89 K, Vacuum adiabatic calorimetry | – | 247.67
350.31 K, Vacuum adiabatic calorimetry | – | 247.9
360 K, Vacuum adiabatic calorimetry | – | 252.22
362.02 K, Vacuum adiabatic calorimetry | – | 253.13
374.86 K, Vacuum adiabatic calorimetry | – | 258.66
380 K, Vacuum adiabatic calorimetry | – | 260.9
387.5 K, Vacuum adiabatic calorimetry | – | 264.11
399.88 K, Vacuum adiabatic calorimetry | – | 269.16
400 K, Vacuum adiabatic calorimetry | – | 269.22
412.6 K, Vacuum adiabatic calorimetry | – | 274.35
420 K, Vacuum adiabatic calorimetry | – | 277.24
425.58 K, Vacuum adiabatic calorimetry | – | 279.37
436.98 K, Vacuum adiabatic calorimetry | – | 283.72
440 K, Vacuum adiabatic calorimetry | – | 284.91
460 K, Small sample (50 mg) DSC | – | 292.55
480 K, Small sample (50 mg) DSC | – | 299.89
500 K, Small sample (50 mg) DSC | – | 307.02
520 K, Small sample (50 mg) DSC | – | 313.94
540 K, Small sample (50 mg) DSC | – | 320.66
560 K, Small sample (50 mg) DSC | – | 327.16
580 K, Small sample (50 mg) DSC | – | 333.46
600 K, Small sample (50 mg) DSC | – | 339.55
620 K, Small sample (50 mg) DSC | – | 345.45
640 K, Small sample (50 mg) DSC | – | 351.22
660 K, Small sample (50 mg) DSC | – | 356.94
680 K, Small sample (50 mg) DSC | – | 362.78
700 K, Small sample (50 mg) DSC | – | 369.01
